Test results published in ChEMBL document CHEMBL1146322, “Synthesis and biological evaluation of some 5-ethoxycarbonyl-6-isopropylamino-4-(substitutedphenyl)aminopyrimidines as potent analgesic and anti-inflammatory agents” (Bioorg Med Chem Lett, 2007).

Assays:
Rattus norvegicus [1] = test: Antiinflammatory activity in rat at 50 mg/kg, po; type: functional
Mus musculus = test: Analgesic activity in Albino mouse assessed as inhibition of acetic acid-induced writhing at 50 mg/kg, po; type: functional
Rattus norvegicus [2] = species: Rattus norvegicus; test: Toxicity in rat assessed as ulcerogenic potential; type: organism-based; conditions: in vivo

Row | SMILES | inhibition in vivo at 50 mg/kg (Rattus norvegicus [1]) [%] | inhibition in vivo at 50 mg/kg (Mus musculus) [%] | UI (Rattus norvegicus [2])
1 | CCOC(=O)c1c(Nc2ccc([N+](=O)[O-])cc2)ncnc1NC(C)C | 84.6 | 77.4 | 
2 | CCOC(=O)c1c(Nc2ccc(C)cc2)ncnc1NC(C)C | 89.7 | 72 | 0.29
3 | CCOC(=O)c1c(Nc2ccc(S(N)(=O)=O)cc2)ncnc1NC(C)C | 87.7 | 72.6 | 0.241
4 | CCOC(=O)c1c(Nc2ccc(Cl)cc2)ncnc1NC(C)C | 30.9 | 70.2 | 
5 | CCOC(=O)c1c(Nc2ccc(OC)cc2)ncnc1NC(C)C | 62.7 | 85.1 | 
6 | CCOC(=O)c1c(NC(C)C)ncnc1Oc1ccccc1 | 55.5 | 70.2 | 
7 | Cc1ccc(-c2cc(C(F)(F)F)nn2-c2ccc(S(N)(=O)=O)cc2)cc1 [CELECOXIB] | 82.1 |  | 0.104
8 | O=C([O-])Cc1ccccc1Nc1c(Cl)cccc1Cl.[Na+] [DICLOFENAC SODIUM] |  | 78 | 0.805
